Assays:
[1] = tested on: blackgrass; test: Test Example 4: herbicidal effect by soil treatment (Table 19, symbol J); assay type: in vivo, blackgrass (Alopecurus myosuroides)
From the text: (§1) [Test Example 4] Herbicidal Effect Test by Soil Treatment
(§2) Sterilized diluvial soil was placed in a plastic box having a length of 21 cm, a width of 13 cm, and a depth of 7 cm. The seeds of each of southern crabgrass, green foxtail, barnyard grass, wild oat, blackgrass, Italian ryegrass, windgrass, velvetleaf, redroot pigweed, lambsquarters, chickweed, false cleavers, persian speedwell, corn, soybean, rice, wheat, beet, and rapeseed were sowed in a spot-like manner and covered with the soil having a thickness of about 1.5 cm. Subsequently, the emulsion agent of the compound of the present invention prepared according to Formulation Example 2 was diluted with water so as to achieve a predetermined herbicide amount, and the diluted emulsion agent was uniformly applied to the surface of the soil with a small-sized spray. The plastic box was placed in a greenhouse at 25° C. to 30° C. for growth of the plants. Three weeks after the herbicide application, the effect of the herbicide on each plant was evaluated according to the criteria of Test Example 1.

[2] = tested on: barnyard grass; test: Test Example 5: herbicidal effect by foliage application, plastic box (Table 20, symbol H); assay type: in vivo, barnyard grass (Echinochloa crus-galli); settings: 320 g/ha
How it was run: (§3)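 Post-emergence foliar test in sterilized diluvial soil. Compound applied as water-diluted emulsion at a predetermined rate to 14-day-old plants; evaluation at three weeks.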

[3] = tested on: barnyard grass; test: Test Example 4: herbicidal effect by soil treatment (Table 19, symbol H); assay type: in vivo, barnyard grass (Echinochloa crus-galli)
How it was run: (§4)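 Emulsion of test compound, water-diluted to predetermined amount, sprayed on soil after sowing (seed depth ~1.5 cm, sterilized diluvial soil). Greenhouse, 25–30° C. Effect graded at three weeks post-spray.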

[4] = tested on: windgrass; test: Test Example 5: herbicidal effect by foliage application, plastic box (Table 20, symbol L); assay type: in vivo, windgrass (Apera spica-venti); settings: 320 g/ha
How it was run: as §3

[5] = tested on: Chinese sprangletop; test: Test Example 3: herbicidal effect by foliage application, Wagner pot (Table 18, symbol D); assay type: in vivo, chinese sprangletop (Leptochloa chinensis); settings: 320 g/ha
How it was run: (§5)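 Plants were sown in alluvial soil held under 0.1–0.5 cm standing water and grown 14 days in a greenhouse at 25–30 °C. An emulsifiable formulation, water-diluted to the set dose, was then sprayed onto the foliage, and effects were scored three weeks later using previously defined criteria.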

[6] = tested on: Italian ryegrass; test: Test Example 5: herbicidal effect by foliage application, plastic box (Table 20, symbol K); assay type: in vivo, Italian ryegrass (Lolium multiflorum); settings: 320 g/ha
How it was run: as §3

[7] = tested on: wild oat; test: Test Example 5: herbicidal effect by foliage application, plastic box (Table 20, symbol I); assay type: in vivo, wild oat (Avena fatua); settings: 320 g/ha
How it was run: as §3

[8] = tested on: chickweed; test: Test Example 5: herbicidal effect by foliage application, plastic box (Table 20, symbol P); assay type: in vivo, common chickweed (Stellaria media); settings: 320 g/ha, foliage application after 14-day growth, evaluated three weeks after application
How it was run: as §3

[9] = tested on: windgrass; test: Test Example 4: herbicidal effect by soil treatment (Table 19, symbol L); assay type: in vivo, windgrass (Apera spica-venti)
From the text: as §1, §2

[10] = tested on: barnyard grass; test: Test Example 3: herbicidal effect by foliage application, Wagner pot (Table 18, symbol H); assay type: in vivo, barnyard grass (Echinochloa crus-galli); settings: 320 g/ha
How it was run: as §5

[11] = tested on: rice flat sedge; test: Test Example 3: herbicidal effect by foliage application, Wagner pot (Table 18, symbol E); assay type: in vivo, rice flat sedge (Cyperus iria); settings: 320 g/ha
How it was run: as §5

[12] = tested on: lambsquarters; test: Test Example 5: herbicidal effect by foliage application, plastic box (Table 20, symbol O); assay type: in vivo, lambsquarters (Chenopodium album); settings: 320 g/ha
How it was run: as §3

[13] = tested on: lambsquarters; test: Test Example 4: herbicidal effect by soil treatment (Table 19, symbol O); assay type: in vivo, lambsquarters (Chenopodium album)
From the text: as §1, §2

[14] = tested on: wild oat; test: Test Example 4: herbicidal effect by soil treatment (Table 19, symbol I); assay type: in vivo, wild oat (Avena fatua)
How it was run: as §4

[15] = tested on: southern crabgrass; test: Test Example 5: herbicidal effect by foliage application, plastic box (Table 20, symbol F); assay type: in vivo, southern crabgrass (Digitaria ciliaris); settings: 320 g/ha
How it was run: as §3

[16] = tested on: velvetleaf; test: Test Example 5: herbicidal effect by foliage application, plastic box (Table 20, symbol M); assay type: in vivo, velvetleaf (Abutilon theophrasti); settings: 320 g/ha
How it was run: as §3

[17] = tested on: redroot pigweed; test: Test Example 5: herbicidal effect by foliage application, plastic box (Table 20, symbol N); assay type: in vivo, redroot pigweed (Amaranthus retroflexus); settings: 320 g/ha, foliage application after 14-day growth, evaluated three weeks after application
How it was run: as §3

[18] = tested on: green foxtail; test: Test Example 4: herbicidal effect by soil treatment (Table 19, symbol G); assay type: in vivo, green foxtail (Setaria viridis)
How it was run: as §4

[19] = tested on: persian speedwell; test: Test Example 5: herbicidal effect by foliage application, plastic box (Table 20, symbol R); assay type: in vivo, Persian speedwell (Veronica persica); settings: 320 g/ha
How it was run: as §3

[20] = tested on: southern crabgrass; test: Test Example 4: herbicidal effect by soil treatment (Table 19, symbol F); assay type: in vivo, southern crabgrass (Digitaria ciliaris)
How it was run: as §4

[21] = tested on: green foxtail; test: Test Example 5: herbicidal effect by foliage application, plastic box (Table 20, symbol G); assay type: in vivo, green foxtail (Setaria viridis); settings: 320 g/ha
How it was run: as §3

[22] = tested on: chickweed; test: Test Example 4: herbicidal effect by soil treatment (Table 19, symbol P); assay type: in vivo, common chickweed (Stellaria media)
From the text: as §1, §2

[23] = tested on: velvetleaf; test: Test Example 4: herbicidal effect by soil treatment (Table 19, symbol M); assay type: in vivo, velvetleaf (Abutilon theophrasti)
From the text: as §1, §2

[24] = tested on: redroot pigweed; test: Test Example 4: herbicidal effect by soil treatment (Table 19, symbol N); assay type: in vivo, redroot pigweed (Amaranthus retroflexus)
How it was run: as §4

[25] = tested on: blackgrass; test: Test Example 5: herbicidal effect by foliage application, plastic box (Table 20, symbol J); assay type: in vivo, blackgrass (Alopecurus myosuroides); settings: 320 g/ha
How it was run: as §3

[26] = tested on: Italian ryegrass; test: Test Example 4: herbicidal effect by soil treatment (Table 19, symbol K); assay type: in vivo, Italian ryegrass (Lolium multiflorum)
How it was run: as §4

[27] = amount of applied herbicide 320 g/ha
[28] = foliage application after 14-day growth, evaluated three weeks after application
[29] = foliage application, 3 weeks after application

## Cc1nn(C)c(=O)c(-c2c(-c3ccccc3F)sc3c(Cl)cccc23)c1O [4-058]
[1]; [27]
  Herbicidal effect by soil treatment, J: blackgrass: 0 (Herbicidal rate of 5% or less (almost no effect))
[2]; [28]
  herbicidal effect on H: barnyard grass (evaluation grade 0-5): 0 (Herbicidal rate of 5% or less (almost no effect))
[3]; [27]
  Herbicidal effect by soil treatment, H: barnyard grass: 0 (Herbicidal rate of 5% or less (almost no effect))
[4]; [28]
  herbicidal effect on L: windgrass (evaluation grade 0-5): 4 (Herbicidal rate of 70% or more and less than 90%)
[5]
  herbicidal effect on Chinese sprangletop (D): 3 (Herbicidal rate of 40% or more and less than 70%)
[6]; [28]
  herbicidal effect on K: Italian ryegrass (evaluation grade 0-5): 3 (Herbicidal rate of 40% or more and less than 70%)
[7]; [28]
  herbicidal effect on I: wild oat (evaluation grade 0-5): 0 (Herbicidal rate of 5% or less (almost no effect))
[8]
  herbicidal effect on P: chickweed (evaluation grade 0-5): 5 (Herbicidal rate of 90% or more (almost completely withered))
[9]; [27]
  Herbicidal effect by soil treatment, L: windgrass: 0 (Herbicidal rate of 5% or less (almost no effect))
[10]
  herbicidal effect on barnyard grass (H): 4 (Herbicidal rate of 70% or more and less than 90%)
[11]
  herbicidal effect on rice flat sedge (E): 3 (Herbicidal rate of 40% or more and less than 70%)
[12]; [28]
  herbicidal effect on O: lambsquarters (evaluation grade 0-5): 2 (Herbicidal rate of 20% or more and less than 40%)
[13]; [27]
  Herbicidal effect by soil treatment, O: lambsquarters: 0 (Herbicidal rate of 5% or less (almost no effect))
[14]; [27]
  Herbicidal effect by soil treatment, I: wild oat: 0 (Herbicidal rate of 5% or less (almost no effect))
[15]; [28]
  herbicidal effect on F: southern crabgrass (evaluation grade 0-5): 2 (Herbicidal rate of 20% or more and less than 40%)
[16]; [28]
  herbicidal effect on M: velvetleaf (evaluation grade 0-5): 1 (Herbicidal rate of 5% or more and less than 20%)
[17]
  herbicidal effect on N: redroot pigweed (evaluation grade 0-5): 3 (Herbicidal rate of 40% or more and less than 70%)
[18]; [27]
  Herbicidal effect by soil treatment, G: green foxtail: 0 (Herbicidal rate of 5% or less (almost no effect))
[19]; [28]
  herbicidal effect on R: persian speedwell (evaluation grade 0-5): 5 (Herbicidal rate of 90% or more (almost completely withered))
[20]; [27]
  Herbicidal effect by soil treatment, F: southern crabgrass: 0 (Herbicidal rate of 5% or less (almost no effect))
[21]; [28]
  herbicidal effect on G: green foxtail (evaluation grade 0-5): 0 (Herbicidal rate of 5% or less (almost no effect))
[22]; [27]
  Herbicidal effect by soil treatment, P: chickweed: 5 (Herbicidal rate of 90% or more (almost completely withered))
[23]; [27]
  Herbicidal effect by soil treatment, M: velvetleaf: 0 (Herbicidal rate of 5% or less (almost no effect))
[24]; [27]
  Herbicidal effect by soil treatment, N: redroot pigweed: 0 (Herbicidal rate of 5% or less (almost no effect))
[25]; [28]
  herbicidal effect on J: blackgrass (evaluation grade 0-5): 0 (Herbicidal rate of 5% or less (almost no effect))
[26]; [27]
  Herbicidal effect by soil treatment, K: Italian ryegrass: 2 (Herbicidal rate of 20% or more and less than 40%)

## Cc1nn(C)c(=O)c(-c2c(-c3ccc(CSC(C)C)cc3)sc3ccccc23)c1O [1-243]
[1]; AAH 320 g/ha
  J: blackgrass, herbicidal effect rating: 0 (Herbicidal rate of 5% or less (almost no effect))
[2]; [29]
  effect on barnyard grass (H): 4 (Herbicidal rate of 70% or more and less than 90%)
[3]; AAH 320 g/ha
  H: barnyard grass, herbicidal effect rating: 0 (Herbicidal rate of 5% or less (almost no effect))
[4]; [29]
  effect on windgrass (L): 0 (Herbicidal rate of 5% or less (almost no effect))
[5]
  herbicidal effect on D (Chinese sprangletop), rating 0-5: 4 (Herbicidal rate of 70% or more and less than 90%)
[6]; [29]
  effect on Italian ryegrass (K): 3 (Herbicidal rate of 40% or more and less than 70%)
[7]; [29]
  effect on wild oat (I): 2 (Herbicidal rate of 20% or more and less than 40%)
[9]; AAH 320 g/ha
  L: windgrass, herbicidal effect rating: 0 (Herbicidal rate of 5% or less (almost no effect))
[10]
  herbicidal effect on H (barnyard grass), rating 0-5: 5 (Herbicidal rate of 90% or more (almost completely withered))
[11]
  herbicidal effect on E (rice flat sedge), rating 0-5: 4 (Herbicidal rate of 70% or more and less than 90%)
[12]; [29]
  effect on lambsquarters (O): 4 (Herbicidal rate of 70% or more and less than 90%)
[13]; AAH 320 g/ha
  O: lambsquarters, herbicidal effect rating: 3 (Herbicidal rate of 40% or more and less than 70%)
[14]; AAH 320 g/ha
  I: wild oat, herbicidal effect rating: 0 (Herbicidal rate of 5% or less (almost no effect))
[15]; [29]
  effect on southern crabgrass (F): 3 (Herbicidal rate of 40% or more and less than 70%)
[16]; [29]
  effect on velvetleaf (M): 5 (Herbicidal rate of 90% or more (almost completely withered))
[18]; AAH 320 g/ha
  G: green foxtail, herbicidal effect rating: 0 (Herbicidal rate of 5% or less (almost no effect))
[19]; [29]
  effect on persian speedwell (R): 5 (Herbicidal rate of 90% or more (almost completely withered))
[20]; AAH 320 g/ha
  F: southern crabgrass, herbicidal effect rating: 0 (Herbicidal rate of 5% or less (almost no effect))
[21]; [29]
  effect on green foxtail (G): 4 (Herbicidal rate of 70% or more and less than 90%)
[22]; AAH 320 g/ha
  P: chickweed, herbicidal effect rating: 0 (Herbicidal rate of 5% or less (almost no effect))
[23]; AAH 320 g/ha
  M: velvetleaf, herbicidal effect rating: 1 (Herbicidal rate of 5% or more and less than 20%)
[24]; AAH 320 g/ha
  N: redroot pigweed, herbicidal effect rating: 4 (Herbicidal rate of 70% or more and less than 90%)
[25]; [29]
  effect on blackgrass (J): 2 (Herbicidal rate of 20% or more and less than 40%)
[26]; AAH 320 g/ha
  K: Italian ryegrass, herbicidal effect rating: 0 (Herbicidal rate of 5% or less (almost no effect))
